Test results reported in patent US20110207759A1, “METHOD FOR TREATMENT OF ATHEROSCLEROTIC DISEASE” (priority 2010, published 2011).
Like-named read-outs stand apart in the source and are kept apart here.

Experiments:
[1] = tested on: statin-treated patients with atherosclerotic coronary or vascular disease or coronary risk equivalent; experiment: Carotid B-mode ultrasound: change in carotid intima-media thickness (CIMT), ARBITER 6-HALTS trial; type: in vivo, human; conditions: for Change in CIMT: 8 and 14 months; for Change in CIMT / Change in CIMT - Mean CIMT / Change in CIMT - Max CIMT: added to statin; for Change in CIMT - Mean CIMT / Change in CIMT - Max CIMT / Change in mean CIMT / Change from baseline CIMT, maximal thickness / Change from baseline CIMT, mean thickness: mean ± SE; for Change in mean CIMT: LOCF; for Effect of increased cumulative drug exposure on CIMT: exploratory analysis, quartiles of adherence × dose × duration; for Change from baseline CIMT, maximal thickness / Change from baseline CIMT, mean thickness: last observation carried forward, all subjects (ezetimibe n=161, niacin n=154)
Description: (§1) Endpoints: The predefined primary endpoint was the between-group difference in the change in mean CIMT after 14 months. Secondary endpoints included the change in lipid values, a composite endpoint consisting of major adverse cardiovascular events (coronary heart disease death, myocardial infarction, myocardial revascularization, admission to the hospital for an acute coronary syndrome), drug discontinuation due to adverse effects, and health-related quality of life (Schweikert et al., 2008). Clinical cardiovascular endpoints were adjudicated by consensus of two members of the data advisory committee blinded to treatment assignment.
Carotid B-mode Ultrasound: Carotid ultrasonography was performed using a Sonosite Micromax ultrasound system (Bothell, Wash.) equipped with a broadband linear array probe (13 MHz). Participants underwent 3 ultrasound examinations during the study at baseline, 8 and 14 months. Except for the initial 20 baseline examinations performed at the Washington Adventist site, a single sonographer performed all ultrasound examinations. Images were obtained of the far wall of the distal 1 centimeter of the right and left common carotid arteries in the anterior and lateral views. A total of eight images (2 complete sets of 4 separate images) were obtained with standardized ultrasound settings. Baseline CIMT images were used to localize the site of imaging in serial images. Digitized still images from an electrocardiographically-defined diastolic frame were quantitated off-line. A single observer unaware of treatment assignment and patient identification performed measurements of mean and maximal CIMT. Focal atherosclerotic plaque was excluded from the site of CIMT measurement. All measurements were performed in duplicate using an automated border detection algorithm. […] Reader drift was evaluated using a standard image set (10 CIMT images from different patients) which the sonographer serially quantified every 6 months.
Statistical analysis: The primary endpoint was the change in mean CIMT from baseline to 14 months between the niacin and ezetimibe treatment groups. […] Clinical and carotid imaging data were held in separate databases for the duration of the trial. Between-group data for continuous variables were assessed with a t-test for independent variables or a Mann-Whitney U test as appropriate. A chi-square test was used for categorical variables. Kaplan-Meier survival analysis was performed using the log rank test. All statistical analyses were performed using SPSS software (version 16, SPSS Inc., Chicago, Ill.). Values are reported as mean±standard deviation or standard error, and median (inter-quartile range) for non-normal distributions. A 2-sided P value of 0.05 was considered statistically significant.
Study design: The study design prespecified the performance of a blinded, interim analysis according to the conservative method of O'Brien and Fleming with an alpha spending function (O'Brien et al. 1979). This was conducted after 180 subjects (60% of the planned sample size) completed the study. An independent data advisory committee evaluated the endpoint data without knowledge of treatment assignment. No formal, a priori stopping boundaries were set for the trial.

[2] = tested on: statin-treated patients with atherosclerotic coronary or vascular disease or coronary risk equivalent; conditions: for Deaths: of 176 ezetimibe / of 187 niacin enrolled
Description: as §1

[3] = tested on: statin-treated patients with atherosclerotic coronary or vascular disease or coronary risk equivalent; experiment: Fasting plasma lipids, glucose and C-reactive protein during treatment; conditions: for HDL-C / LDL-C / Total Cholesterol / Final change in HDL-C / Final change in LDL-C: added to statin; for HDL-C / LDL-C / Total Cholesterol / Total cholesterol, final values / HDL-C, final values / LDL-C, final values: mean ± SD; for C-reactive protein / Triglycerides: median (inter-quartile range); for Change from baseline in LDL-C and triglycerides: 315 patients, baseline to final; for Final change in HDL-C / Final change in LDL-C: baseline to 14 months; for Total cholesterol, final values / HDL-C, final values / LDL-C, final values / Triglycerides, final values / hsCRP, final values: study completion; for Total cholesterol, final values: n=315 (ezetimibe 161, niacin 154), last observation carried forward; for HDL-C, final values / LDL-C, final values / Triglycerides, final values / hsCRP, final values: n=315; for Triglycerides, final values / hsCRP, final values: median (interquartile range);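 on all read-outs here: plasma drawn after an overnight fast, LDL-C determined by direct assay and C-reactive protein by high-sensitivity immunoturbidimetry with monoclonal anti-CRP antibodies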
Description: Study population: This prospective, randomized, parallel group, open-label, blinded endpoint study was conducted at two centers, Walter Reed Army Medical Center, a university-affiliated, suburban, tertiary care military medical center, and the Washington Adventist Hospital, a private tertiary care hospital located in Takoma Park, Md. The institutional review boards of each facility approved the study, and all volunteers provided written, informed consent. Included subjects were men and women ≧30 years old with either known atherosclerotic coronary or vascular disease (N=279) or a coronary risk equivalent diagnosis including diabetes mellitus (N=38), a 10-year coronary heart disease Framingham risk score ≧20% (N=26), or a coronary calcium score above 200 or 400 (N=20) for women and men respectively.
Randomization: Three hundred sixty-three patients were enrolled in the trial. […] Randomization was performed using a computer-generated sequence of random numbers. There were no protocol-directed changes in statin medications during the study.
Cardiovascular risk variables: Following an overnight fast, laboratory measurements included plasma total cholesterol, LDL-C, HDL-C, triglycerides, C-reactive protein, liver-associated enzymes and glucose at baseline, 2, 8 and 14 months. LDL-C was measured using a direct assay. C-reactive protein was measured with a high-sensitivity, commercially available immunoturbidimetric assay, which uses monoclonal antibodies to CRP (Roche Cobas® Integra, Switzerland).

[4] = tested on: statin-treated patients with atherosclerotic coronary or vascular disease or coronary risk equivalent; experiment: Major adverse cardiovascular events (composite clinical endpoint); type: in vivo, human; conditions: 14-month study; for Cardiovascular death (number of events) / Coronary revascularization procedure (number of events) / Myocardial infarction (number of events) / Subjects experiencing a composite clinical cardiovascular endpoint (major adverse cardiovascular events): ezetimibe N=165, niacin N=160
Description: as §1

[5] = 8 months from baseline, 208 completers (ezetimibe N=111, niacin N=97)
[6] = 8 months from baseline, 208 completers
[7] = 14 months from baseline, completing subjects (ezetimibe n=111, niacin n=97)
[8] = Quartile 1 (lowest) of cumulative drug exposure (adherence × dose × treatment duration)
[9] = Quartile 2 of cumulative drug exposure
[10] = Quartile 3 of cumulative drug exposure
[11] = Quartile 4 (highest) of cumulative drug exposure, 14 months
[12] = both, human, in vivo, 14 months
[13] = 2 Months, 208 subjects who completed 14 month study

Structure (SMILES): O=C1[C@H](CC[C@H](O)c2ccc(F)cc2)[C@@H](c2ccc(O)cc2)N1c1ccc(F)cc1 [Ezetimibe, ezetimibe]
- Change in CIMT ([1]; 208 completers): No net change
- Change in CIMT - Mean CIMT [1, 5]: 0.0014 ± 0.0020 mm
- Change in CIMT - Max CIMT [1, 6]: −0.0028 ± 0.0031 mm
- Change in CIMT - Max CIMT [1, 7]: −0.0009 ± 0.0039 mm
- Change in CIMT - Mean CIMT [1, 7]: −0.0007 ± 0.0035 mm
- Change in mean CIMT [1, 8]: −0.0071 ± 0.0031 mm
- Change in mean CIMT [1, 9]: −0.0051 ± 0.0036 mm
- Change in mean CIMT [1, 10]: −0.0009 ± 0.0067 mm
- Change in mean CIMT [1, 11]: 0.0067 ± 0.0059 mm
- Change in mean CIMT ([1]; Quartile 4 (highest) of cumulative drug exposure, 14 months, listed as ezetimibe): 0.0067±0.0059 mm
- Effect of increased cumulative drug exposure on CIMT [1]: progression of CIMT
- Change from baseline CIMT, maximal thickness [1]: −0.0005 ± 0.0029 mm
- Change from baseline CIMT, mean thickness [1]: −0.0016 ± 0.0024 mm
- Change from baseline CIMT, maximal thickness ([1]; listed as ezetimibe): −0.0005±0.0029 mm
- Change from baseline CIMT, mean thickness ([1]; listed as ezetimibe): −0.0016±0.0024 mm
- Withdrawals with adverse drug effects cited as the reason [2, 12]: 3
- Subjects who did not complete the study ([2]; in vivo): 16
- Subjects who did not complete the study (percent) ([2]; in vivo): 9.1%
- Withdrawals ([2]; in vivo): 9
- Deaths [2]: 7
- HDL-C ([3]; 2 Months, 208 completers): 42.2 ± 8.5 mg/dL
- LDL-C ([3]; 2 Months, 208 completers): 60.1 ± 16.1 mg/dL
- C-reactive protein ([3]; 2 Months, 208 completers): 1.2 (0.6-3.0) mg/L
- Triglycerides ([3]; 2 Months, 208 completers): 100 (78-140) mg/dL
- Total Cholesterol [3, 13]: 120.2 ± 20.6 mg/dL
- HDL-C ([3]; 8 Months, 208 completers): 41.1 ± 9.0 mg/dL
- LDL-C ([3]; 8 Months, 208 completers): 61.6 ± 17.2 mg/dL
- Total Cholesterol ([3]; 8 Months, 208 completers): 122.4 ± 21.5 mg/dL
- C-reactive protein ([3]; 8 Months, 208 completers): 1.3 (0.6-2.9) mg/L
- Triglycerides ([3]; 8 Months, 208 completers): 107 (78-153) mg/dL
- HDL-C ([3]; 14 Months, 208 completers): 40.5 ± 7.9 mg/dL
- LDL-C ([3]; 14 Months, 208 completers): 66.1 ± 18.8 mg/dL
- Total Cholesterol ([3]; 14 Months, 208 completers): 127.8 ± 22.8 mg/dL
- C-reactive protein ([3]; 14 Months, 208 completers): 0.6 (0.6-3.1) mg/L
- Triglycerides ([3]; 14 Months, 208 completers): 113 (84-150) mg/dL
- Change from baseline in LDL-C and triglycerides [3]: Significant reductions
- Final change in HDL-C ([3]; 208 completers): -2.8 ± 5.7 mg/dL
- Final change in LDL-C ([3]; 208 completers): -17.6 ± 20.1 mg/dL
- Total cholesterol, final values [3]: 127.5 ± 24.8 mg/dL
- HDL-C, final values [3]: 41.1 ± 8.5 mg/dL
- LDL-C, final values [3]: 65.5 ± 20.0 mg/dL
- Triglycerides, final values [3]: 111 (82-144) mg/dl
- hsCRP, final values [3]: 1.0 (0.5-2.9) mg/l
- Incidence of major adverse cardiovascular events [4]: 5.8%
- Cardiovascular death (number of events) [4]: 5
- Coronary revascularization procedure (number of events) [4]: 3
- Myocardial infarction (number of events) [4]: 3
- Subjects experiencing a composite clinical cardiovascular endpoint (major adverse cardiovascular events) [4]: 9 subjects

Structure (SMILES): O=C(O)c1cccnc1 [Niacin, niacin]
- Change in CIMT ([1]; 208 completers): significant reduction in mean and maximal CIMT (regression)
- Change in CIMT - Mean CIMT [1, 5]: −0.0102 ± 0.0030 mm
- Change in CIMT - Max CIMT [1, 6]: −0.0128 ± 0.0043 mm
- Change in CIMT - Max CIMT [1, 7]: −0.0181 ± 0.0050 mm
- Change in CIMT - Mean CIMT [1, 7]: −0.0142 ± 0.0041 mm
- Change in CIMT - Mean CIMT ([1]; 14 months from baseline, completing subjects (ezetimibe n=111, niacin n=97), listed as ERN): −0.0142±0.0041 mm
- Change in mean CIMT [1, 8]: −0.0052 ± 0.0041 mm
- Change in mean CIMT [1, 9]: −0.0073 ± 0.0027 mm
- Change in mean CIMT [1, 10]: −0.0148 ± 0.0060 mm
- Change in mean CIMT [1, 11]: −0.0128 ± 0.0078 mm
- Change in mean CIMT ([1]; Quartile 4 (highest) of cumulative drug exposure, 14 months, listed as ERN): −0.0128±0.0078 mm
- Effect of increased cumulative drug exposure on CIMT [1]: regression of CIMT
- Change from baseline CIMT, maximal thickness [1]: −0.0124 ± 0.0036 mm
- Change from baseline CIMT, mean thickness [1]: −0.0102 ± 0.0026 mm
- Change from baseline CIMT, maximal thickness ([1]; listed as niacin): −0.0124±0.0036 mm
- Change from baseline CIMT, mean thickness ([1]; listed as niacin): −0.0102±0.0026 mm
- Cutaneous flushing reported [2, 12]: 36.1%
- Subjects who did not complete the study ([2]; in vivo): 28
- Subjects who did not complete the study (percent) ([2]; in vivo): 14.9%
- Withdrawals ([2]; in vivo): 27
- Withdrawals with adverse drug effects cited as the reason ([2]; of 9 ezetimibe / of 27 niacin withdrawals): 17
- Deaths [2]: 1
- HDL-C ([3]; 2 Months, 208 completers): 48.9 ± 10.6 mg/dL
- LDL-C ([3]; 2 Months, 208 completers): 66.2 ± 18.1 mg/dL
- C-reactive protein ([3]; 2 Months, 208 completers): 1.1 (0.6-3.1) mg/L
- Triglycerides ([3]; 2 Months, 208 completers): 88 (69-125) mg/dL
- Total Cholesterol [3, 13]: 131.0 ± 22.9 mg/dL
- HDL-C ([3]; 8 Months, 208 completers): 50.7 ± 11.6 mg/dL
- LDL-C ([3]; 8 Months, 208 completers): 67.1 ± 19.5 mg/dL
- Total Cholesterol ([3]; 8 Months, 208 completers): 133.6 ± 25.5 mg/dL
- C-reactive protein ([3]; 8 Months, 208 completers): 1.1 (0.5-2.4) mg/L
- Triglycerides ([3]; 8 Months, 208 completers): 88 (66-123) mg/dL
- HDL-C ([3]; 14 Months, 208 completers): 49.9 ± 12.2 mg/dL
- LDL-C ([3]; 14 Months, 208 completers): 70.5 ± 23.9 mg/dL
- Total Cholesterol ([3]; 14 Months, 208 completers): 136.7 ± 29.3 mg/dL
- C-reactive protein ([3]; 14 Months, 208 completers): 1.0 (0.4-2.9) mg/L
- Triglycerides ([3]; 14 Months, 208 completers): 90 (69-138) mg/dL
- Change from baseline in LDL-C and triglycerides [3]: Significant reductions
- Final change in HDL-C ([3]; 208 completers): +7.5±9.2 mg/dL
- Final change in LDL-C ([3]; 208 completers): -10.0 ± 24.5 mg/dL
- Total cholesterol, final values [3]: 137.6 ± 30.5 mg/dL
- HDL-C, final values [3]: 49.7 ± 11.5 mg/dL
- LDL-C, final values [3]: 72.7 ± 25.9 mg/dL
- Triglycerides, final values [3]: 91 (69-134) mg/dl
- hsCRP, final values [3]: 1.0 (0.4-2.3) mg/l
- Incidence of major adverse cardiovascular events [4]: 1.3%
- Cardiovascular death (number of events) [4]: 1
- Coronary revascularization procedure (number of events) [4]: 0
- Myocardial infarction (number of events) [4]: 1
- Subjects experiencing a composite clinical cardiovascular endpoint (major adverse cardiovascular events) [4]: 2 subjects
